Test system: estrogen receptors alpha, beta, and gamma, and Vtg 1 mRNA
Assay: Real-time PCR of ER and Vtg 1 mRNA in LMB liver
Assay type: in vivo, largemouth bass (LMB)
Conditions: male LMB liver, 48 h after IP 4-NP 50 mg/kg + ICI 182,780 1.0 mg/kg
From the text: Experimental Design and Sample Collection: Adult male LMB were purchased from American Sports Fish Hatchery (Montgomery, Ala.) and maintained in fiberglass tanks as previously described (Larkin et al., Comp. Biochem. Physiol. B. Biochem. Mol. Biol. 133:543-557, 2002; Larkin et al., Marine Environ. Res. 54:395-399, 2002; and Larkin et al., Comparative Biochemistry and Physiology 133:543-557, 2002). Array technology as a tool to monitor exposure of fish to xenoestrogens. Marine Environ. Res., 2002; Bowman et al., Mol. Cell. Endocrinol. 196:67-77, 2002). Each fish was injected IP with either 50 mg/kg 4-NP (Fluka, St. Louis, Mo. # 74430), the combination of 50 mg/kg 4-NP and 1.0 mg/kg ICI 182,780 (Tocris Cookson), or vehicle, which consisted of ethanol and DMSO (Sigma, St. Louis, Mo. #5879). Each dose was dissolved in 1 ml of ethanol and then diluted to the appropriate concentration with DMSO. The fish were euthanized by submersion in a water bath containing 50-100 ppm […] 48 hours post injection and sacrificed by a sharp blow to the head followed by cervical transaction. The livers were excised and immediately flash frozen in liquid nitrogen. The frozen tissues were stored at −80° C. until RNA was isolated.
RNA Isolation: Isolation of total RNA from liver tissue was performed with the RNA Stat-60 reagent (Tel-test). Briefly, 30 mg-50 mg of tissue stored in RNA later was homogenized in 0.9 mls STAT 60, choloroform was added, and the mixture was centrifuged at 12,000 g for 15 minutes at 4° C. The extraction process was repeated and the pooled RNA was added to 500 μl isopropanol and allowed to precipitate at −20° C. for at least one hour. Following centrifugation at 12,000 g for 50 minutes, the pellet was washed with 70% ethanol, air dried and resuspended in an appropriate volume (50 μl-120 μl of RNA secure. The samples were treated with RNA secure (Ambion, Austin Tex. #7010) to inactivate contaminating RNases. All isolated RNA was treated with DNase solution (Ambion, Austin, Tex. #1906) following the manufacture's protocol. For all RNA samples, the quantity and quality of total RNA was assessed by spectrophotometric readings at 260 nm and by electrophoresis through a 1% formaldahyde agarose gel stained with ethidium bromide.
Real-Time PCR: Real time PCR was performed using reagents and a 5700 thermocycler purchased from Applied Biosystems (ABI, Foster City, Calif.). The nucleotide sequences of the primers for the ER subtypes and Vtg 1 are as follows: 5′, […] (SEQ ID NO:563) AND 5′[…] (SEQ ID NO:564). Probes and primers for the ER subtypes and Vtg 1 are described in Bowman et al., Ecotoxicology 8:399-416, 1999; and Bowman et al., Mol. Cell Endocrinol. 196:67-77, 2002. Each real time PCR reaction consisted of 0.01-0.2 μg of reverse transcribed total RNA from liver tissue, 1× universal Taqman master mix (ABI, Foster City, Calif.), and primers and probes in a 25 μl reaction. […] Statistical differences between the treatments were determined by one way analysis of variance with Dunnets post-hoc analysis.
Measurement of ER and Vtg 1 mRNA by real-time PCR: Real-time PCR is a sensitive assay that can be used to quantitate expression levels of genes. Using this technology, assays were designed to quantitate the expression of 4 genes, estrogen receptors alpha, beta, and gamma, and Vtg 1 in LMB following exposure to 4-NP and 4-NP/ICI 182,780. […]

`C[C@]12CC[C@@H]3c4ccc(O)cc4C[C@@H](CCCCCCCCC[S+]([O-])CCCC(F)(F)C(F)(F)F)[C@H]3[C@@H]1CC[C@@H]2O` (stereo partly shown) [ICI 182,780] was tested, and the “repression of 4-NP induction of Vtg 1 mRNA by addition of ICI 182,780” value was “not repressed”.

From patent publication US20040166509A1, “Detecting hormonally active compounds” (priority 2002, published 2004)
